Earlier results in patent publication US20210236687A1, “CANNABINOID-BASED ORAL HEMOSTATIC COMPOSITIONS” (Pac-Dent, Inc., priority 2020, published 2021).

How the values were obtained:
[1] = tested on: MCP-2 chemokine and other proinflammatory cytokines; settings: Petrosino et al. 2018; inhibition of production of MCP-2 chemokine and other proinflammatory cytokines
[2] = Evans 1991
[3] = tested on: methicillin-resistant Staphylococcus aureus strains (MRSA); settings: European research
[4] = in vivo
[5] = in vivo; remark: listed apart in the source

C=C(C)[C@@H]1CCC(C)=C[C@H]1c1c(O)cc(CCC)cc1O [CBDV, cannabidivarin]
anti-inflammatory properties in an in vitro model of allergic contact dermatitis [1]: some anti-inflammatory benefits

C=C(C)[C@@H]1CCC(C)=C[C@H]1c1c(O)cc(CCCCC)cc1O [CBD, cannabidiol, reference compound]
anti-inflammatory properties in an in vitro model of allergic contact dermatitis [1]: potent anti-inflammatory properties

CCCCCc1cc(O)c2c(c1)OC(C)(C)[C@@H]1CCC(C)=C[C@@H]21 [THC, tetrahydrocannabinol]
anti-inflammatory potency relative to aspirin [2]: twenty times | anti-inflammatory potency relative to hydrocortisone [2]: twice | cyclooxygenase (COX) inhibition (cyclooxygenase (COX)): without any cyclooxygenase (COX) inhibition

CCCCCc1cc(O)c(C/C=C(\C)CCC=C(C)C)c(O)c1 [CBG, cannabigerol]
antibacterial effect against MRSA strains resistant to several classes of drugs [3]: effective antibacterial agent | anti-inflammatory properties in an in vitro model of allergic contact dermatitis [1]: some anti-inflammatory benefits | inflammation characteristics in animal experiments [4]: effective in decreasing the inflammation characteristics

CCCCCc1cc(O)c2c(c1)OC(C)(CCC=C(C)C)C=C2 (stereo not shown) [CBC, cannabichromene]
anti-inflammatory properties in an in vitro model of allergic contact dermatitis [1]: some anti-inflammatory benefits | pain and inflammation associated with collagen-induced osteoarthritis [5]: block pain and inflammation
